Experimental data: patent publication US6005116A, “Isoxazole compounds useful for the prophylaxis or treatment of nervous diseases” (Sankyo Company, Limited, priority 1996, dated 1999)
Counter-ions that a name gives are not always drawn.

Biological target: T1, Type A-monoamine oxidase (Mus musculus, UniProt Q64133)
T1 sequence (Q64133 1-526): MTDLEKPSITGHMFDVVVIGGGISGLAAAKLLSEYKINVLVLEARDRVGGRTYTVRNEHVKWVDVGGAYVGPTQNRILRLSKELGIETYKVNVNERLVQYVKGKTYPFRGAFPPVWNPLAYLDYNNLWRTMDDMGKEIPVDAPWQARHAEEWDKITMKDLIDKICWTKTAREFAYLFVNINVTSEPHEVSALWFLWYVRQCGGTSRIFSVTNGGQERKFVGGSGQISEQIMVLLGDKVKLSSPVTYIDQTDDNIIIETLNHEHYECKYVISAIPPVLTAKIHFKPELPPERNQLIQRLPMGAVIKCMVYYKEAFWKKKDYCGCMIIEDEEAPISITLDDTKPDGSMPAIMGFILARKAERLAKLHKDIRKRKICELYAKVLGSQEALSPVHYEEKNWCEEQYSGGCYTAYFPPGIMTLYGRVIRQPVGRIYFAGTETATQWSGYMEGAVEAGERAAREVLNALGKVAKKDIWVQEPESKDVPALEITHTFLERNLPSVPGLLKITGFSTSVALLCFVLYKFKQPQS
Experiment: Type A-monoamine oxidase inhibitory activity
Type: biochemical
Details: not given

Row | Compound | IC50
1 | CC(C)c1c(OCCN)noc1-c1ccc(Cl)cc1Cl [Example 57, 3-(2-Aminoethoxy)-5-(2,4-dichlorophenyl)-4-isopropylisoxazole hydrochloride] | < 28 nM

Same assay, conditions: mouse brain crude mitochondria; substrate 14C-5-HT 100 μM; preincubated at 38° C. for 20 minutes; phosphate buffer pH 7.4; read-out: IC50 (concentration of the compound which decreases the 14C radioactivity of the control by 50%)

Row | Compound | IC50
2 | NCCOc1cc(-c2ccccc2)on1 [Example 1, 3-(2-Aminoethoxy)-5-phenylisoxazole hydrochloride] | < 28 nM
3 | NCCOc1noc(-c2ccccc2)c1Cl [Example 2, 3-(2-Aminoethoxy)-4-chloro-5-phenylisoxazole hydrochloride] | < 28 nM
4 | NCCOc1cc(-c2ccc(Cl)cc2)on1 [Example 3, 3-(2-Aminoethoxy)-5-(4-chlorophenyl)isoxazole hydrochloride] | < 28 nM
5 | CC(C)c1c(OCCN)noc1-c1ccccc1 [Example 4, 3-(2-Aminoethoxy)-4-isopropyl-5-phenylisoxazole hydrochloride] | < 28 nM
6 | NCCOc1cc(-c2cccs2)on1 [Example 5, 3-(2-Aminoethoxy)-5-(2-thienyl)isoxazole hydrochloride] | < 28 nM
7 | NCCOc1noc(-c2cccs2)c1Cl [Example 6, 3-(2-Aminoethoxy)-4-chloro-5-(2-thienyl)isoxazole hydrochloride] | < 28 nM
8 | NCCOc1cc(-c2cccnc2)on1 [Example 7, 3-(2-Aminoethoxy)-5-(3-pyridyl)isoxazole hydrochloride] | < 28 nM
9 | NCCOc1noc(-c2cccnc2)c1Cl [Example 8, 3-(2-Aminoethoxy)-4-chloro-5-(3-pyridyl)isoxazole hydrochloride] | < 28 nM
10 | CC(C)c1c(OCCN)noc1-c1ccco1 [Example 54, 3-(2-Aminoethoxy-5-(2-furyl)-4-isopropylisoxazole hydrochloride] | < 28 nM
11 | CC(C)c1c(OCCN)noc1-c1ccccc1Cl [Example 58, 3-(2-Aminoethoxy)-5-(2-chlorophenyl)-4-isopropylisoxazole hydrochloride] | < 28 nM
12 | CC(C)c1c(OCCN)noc1-c1ccc(Cl)cc1 [Example 59, 3-(2-Aminoethoxy)-5-(4-chlorophenyl)-4-isopropylisoxazole hydrochloride] | < 28 nM
13 | C=CCc1c(OCCN)noc1-c1ccccc1 [Example 60, 4-Allyl-3-(2-aminoethoxy)-5-phenylisoxazole hydrochloride] | < 28 nM
14 | CC(C)Cc1c(OCCN)noc1-c1ccccc1 [Example 62, 3-(2-Aminoethoxy)-4-isobutyl-5-phenylisoxazole hydrochloride] | < 28 nM
15 | CC(C)c1c(OCCN)noc1-c1cccs1 [Example 67, 3-(2-Aminoethoxy)-4-isopropyl-5-(2-thienyl)isoxazole hydrochloride] | < 28 nM
